Source: patent US5180742A, “Quinone derivatives, their production and use” (Takeda Chemical Industries, Ltd., priority 1984, dated 1993)

What was measured:
[1] = system: experimental cerebral infarction model of Mongolian gerbils; assay: Anti-edema action in an experimental cerebral infarction model of Mongolian gerbil; format: in vivo; details: oral, 1 hour before carotid ligation
Experimental: Anti-Edema Action in an Experimental Cerebral Infarction Model of Mongolian Gerbil
Male Monglian gerbils (8-10 weeks of age) were used. Under light ether anesthesia, the right common carotid artery was ligated for 1 hour to induce experimental cerebral infarction, and then reperfused on removing the ligature. One hour after reperfusion, the animal was guillotined, the brain was excised, and divided into the left and right brain hemispheres. The wet weight of each hemisphere was determined, and then the dry weight was determined after drying for 24 hours at 96° C. The water content (%) of each hemisphere was estimated according to the following equation. [formula] In addition, neurological deficit symptoms were observed during ligation-and-reperfusion periods.
Test drugs were orally administered as a gum arabic suspension 1 hour before the common carotid artery ligation under an unanesthetized condition. Results

[2] = system: PMA-stimulated release of O2^- in guinea pig peritoneal polymorphonuclear leukocytes; assay: PMA-stimulated release of O2- in guinea pig peritoneal polymorphonuclear leukocytes (chemiluminescence); format: cell-based
Experimental: Luminol (3-aminophthaloylhydrazine), 10 nmole, and phorbol myristate acetate (PMA), 10 ng, were added to guinea pig peritoneal polymorphonuclear leukocytes (1.5×10^4 cells) suspended in Hanks' balanced salt solution-HEPES buffer (pH 7.4). A total volume of the reaction mixture was 0.1 ml. The chemiluminescence resulted from release of superoxide (O2^-) during 30 sec was measured continuously for 10 min at 37° C. using a chemiluminometer analyzer (Packard Pico-Lite). A peak value of the chemiluminescence was compared as an index of the release of O2^-, and the chemiluminecence inhibitable by superoxide dismutase (300 μg/ml) was measured as 100%. Compound No. 50 was added immediately before the addition of PMA.

[3] = system: lipid peroxides production in rat brain homogenates; assay: Inhibitory action on lipid peroxides production in rat brain homogenates (thiobarbituric acid method); format: biochemical, rat (SD); details: n = 4-6
Experimental: Inhibitory Action on Lipid Peroxides Production in Rat Brain Homogenates
The male SD rat brain tissue was used as 5% homogenate in phosphate-buffered solution. After incubation of the homogenate for 1 hour at 37° C., the amount of lipid peroxides produced was determined by the thiobarbituric acid method according to the description of Ohkawa et al. (Analytical Biochemistry, 95: 551, 1979)
Test compounds were used as a solution of dimethylsulfoxide. The inhibitory action on lipid peroxide production was expressed as a % inhibition as compared with the amount of production in the vehicle group. Results

[4] = system: ischemic convulsive seizure due to bilateral common carotid artery ligation in SHR rats; assay: Inhibitory action on induction of convulsive seizure in experimental cerebral infarction model of SHR rats; format: in vivo, spontaneously hypertensive rats; details: control 151 ± 5
Experimental: Inhibitory Action on Induction of Convulsive Seizure in an Experimental Cerebral Infarction Model of Spontaneously Hypertensive Rats
Cerebral ischemia was induced by simultaneous ligation of bilateral common carotid arteries in male spontaneously hypertensive (SHR) rats (about 22 weeks of age) under light pentobarbital anesthesia. Thereafter, over about 4 hours, the behaviour was observed under conscious state.
Test drugs were orally administered as a gum arabic suspension 1 hour before the ligation of bilateral common carotid arteries under an unanesthetized condition.

mice of ICR breed = format: in vivo; details: 1000 mg/kg oral, male ICR mice, 7 days
Text: Acute Toxicity Test in Mice (Acute Toxicity)
1000 Milligrams per kilogram of each set specimen was applied orally to groups of 5 five-weeks old male mice of ICR breed, and a number of dead animals observed for the 7-days period was counted.

Row | Structure (SMILES) | Incidence of appearance of neurological deficit symptoms ([1]; control 5/6) | Water content, normal side (left) ([1]; control 80.1 ± 0.3) | Water content, infarct side (right) ([1]; control 81.3 ± 0.9) | suppression of the release of O2- (in words) ([2]; 0.001-0.1 mM) | inhibition at 1 µM ([2]; Cavia porcellus, Leukocyte, 0.001 mM) | inhibition at 10 µM ([2]; Cavia porcellus, Leukocyte, 0.01 mM) | inhibition at 100 µM ([2]; Cavia porcellus, Leukocyte, 0.1 mM) | Inhibition of lipid peroxides production ([3]; 10^-5 M) | Inhibition of lipid peroxides production ([3]; 10^-6 M) | Inhibition of lipid peroxides production ([3]; 10^-7 M) | Time to appearance of convulsive seizure ([4]; 3 mg/kg oral) | Time to appearance of convulsive seizure ([4]; 10 mg/kg oral) | Acute toxicity (number of dead animals/number of animals used) (mice of ICR breed)
1 | CC1=C(C)C(=O)C(C(CCCCCC(=O)O)c2ccccc2)=C(C)C1=O (stereo not shown) [Compound No. 50, 7-(3,5,6-trimethyl-1,4-benzoquinon-2-yl)-7-phenylheptanoic acid] | 1/6 | 79.8 ± 1.0% | 80.3 ± 1.0% | suppressed the release of O2^- in a concentration-dependent manner | 12% | 56% | 93% | 100 ± 0% | 66.6 ± 12.4% | 16.7 ± 3.2% | 204 ± 7 min | 220 ± 9 min | 
2 | CC1=C(C)C(=O)C(C(CCCCCC(=O)O)c2ccc(C)cc2)=C(C)C1=O (stereo not shown) [Compound No. 93] |  |  |  |  |  |  |  |  |  |  |  |  | 0/5
